Measured values published in ChEMBL document CHEMBL1201862, “PubChem BioAssay data set” (2004).
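Tested at 5 concentrations; 48 h exposure; 96-well plates; endpoints linearly interpolated, else capped at highest concentration. GI50: concentration for 50% inhibition of growth.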 Active and inactive are the calls of the source. Rule as the data show it: active = GI50 up to about 1.1 µM and inactive = higher.

Legend:
Assay in all cases: inhibition of tumour cell growth, NCI panel, 48 h
[1] = test system: UACC-257
[2] = test system: PC-3
[3] = test system: SF-268
[4] = test system: OVCAR-5
[5] = test system: NCI-H460
[6] = test system: SF-295
[7] = test system: MDA-N
[8] = test system: KM12
[9] = test system: 786-0
[10] = test system: A498
[11] = test system: BT-549
[12] = test system: RPMI-8226
[13] = test system: OVCAR-8
[14] = test system: SK-MEL-28
[15] = test system: NCI-H23
[16] = test system: M14
[17] = test system: OVCAR-4
[18] = test system: TK-10
[19] = test system: NCI-H226
[20] = test system: SK-MEL-5

Measured: GI50

CC(=O)Nc1ccc2cc(C#N)c(=O)[nH]c2n1
inactive: [1] > 100 µM | [2] > 100 µM | [3] > 100 µM | [4] > 100 µM | [5] > 100 µM | [6] > 100 µM | [7] > 100 µM | [8] 64.3 µM | [9] > 100 µM | [10] > 100 µM | [11] > 100 µM | [12] > 100 µM | [13] > 100 µM | [14] > 100 µM | [15] > 100 µM | [16] > 100 µM | [17] > 100 µM | [18] > 100 µM | [19] > 100 µM | [20] > 100 µM

Oc1ccc(CCNCc2cc3c(cc2Br)OCO3)cc1
inactive: [1] 50.2 µM | [2] 46.9 µM | [3] > 100 µM | [4] > 100 µM | [5] 57.8 µM | [6] 65.2 µM | [7] 68.2 µM | [9] 71 µM | [10] 50 µM | [11] 92.5 µM | [12] 27.9 µM | [13] > 100 µM | [14] 37.2 µM | [15] > 100 µM | [16] 38.1 µM | [18] 75.9 µM | [19] 32.5 µM | [20] 27.1 µM

CSc1ncnc2c1cnn2CCCCO
inactive: [1] > 100 µM | [2] > 100 µM | [3] > 100 µM | [4] > 100 µM | [5] > 100 µM | [6] > 100 µM | [7] > 100 µM | [8] > 100 µM | [9] > 100 µM | [10] > 100 µM | [11] > 100 µM | [12] > 100 µM | [14] > 100 µM | [15] > 100 µM | [16] > 100 µM | [17] > 100 µM | [18] > 100 µM | [19] > 100 µM | [20] > 100 µM

COC(=O)C(=O)C(C(=O)C(=O)Nc1ccc([N+](=O)[O-])cc1[N+](=O)[O-])c1nc2ccc(Cl)cc2nc1O (centres undefined)
inactive: [1] > 100 µM | [2] > 100 µM | [3] 74.1 µM | [4] > 100 µM | [5] > 100 µM | [6] > 100 µM | [7] > 100 µM | [8] > 100 µM | [9] > 100 µM | [10] > 100 µM | [11] > 100 µM | [12] > 100 µM | [13] > 100 µM | [14] > 100 µM | [15] > 100 µM | [16] > 100 µM | [17] 27.1 µM | [19] 78.5 µM | [20] > 100 µM

NC1(c2cc3ccccc3s2)CCCCCC1
inactive: [1] 16.3 µM | [2] 11.7 µM | [4] 15 µM | [5] 15 µM | [6] 18.3 µM | [7] 16.6 µM | [8] 16 µM | [9] 15.5 µM | [10] 20.7 µM | [11] 17.7 µM | [13] 17.3 µM | [14] 16.7 µM | [15] 17.3 µM | [16] 18.8 µM | [17] 14.4 µM | [18] 15.4 µM | [19] 19.8 µM | [20] 15.1 µM

CC12CP(=O)(c3ccccc3)CC1c1ccccc1C2c1ccccc1 (centres undefined)
inactive: [2] 12.4 µM | [3] 26.1 µM | [4] 30.9 µM | [5] 14.5 µM | [6] 15.6 µM | [7] 16.6 µM | [8] 17.3 µM | [9] 17.3 µM | [10] 27.7 µM | [11] > 10 µM | [13] 15.2 µM | [14] 29.4 µM | [15] 20.7 µM | [16] 17.5 µM | [18] 62.2 µM | [19] 19.7 µM | [20] 19.1 µM

C[N+]1(C)C2CC(OC(=O)C(CO)c3ccccc3)CC1C1OC12 (centres undefined)
inactive: [1] > 100 µM | [2] > 100 µM | [4] > 100 µM | [6] > 100 µM | [7] > 100 µM | [8] > 100 µM | [9] > 100 µM | [10] > 100 µM | [11] > 100 µM | [12] > 100 µM | [13] > 100 µM | [14] > 100 µM | [15] > 100 µM | [16] > 100 µM | [17] > 100 µM | [18] > 100 µM | [19] > 100 µM | [20] > 100 µM
